Tests used:
[1] = system: Aspergillus fumigatus FP1305; assay: Antimicrobial activity, serial broth dilution method (96-well microtiter plate); type: cell-based; conditions: yeast nitrogen base dextrose medium, 1×10^5 cfu/ml, 37° C. for 24 hours, microscopic observation
Method: (§1) Test (Antimicrobial activity):
(§2) Test Compound The object compound of Example 1
(§3) Antimicrobial activity of the object compound of Example 1 was determined by a serial broth dilution method using 96-well microtiter plate in 100 μl of MEM (Eagle's minimum essential medium) for Candida albicans and in 100 μl of yeast nitrogen base dextrose medium for both Asperaillus fumigatus and Cryptococcus neoformans. The inoculum was adjusted to 1×10^5 colony forming units/ml. Candida albicans and Asperaillus fumigatus were cultured at 37° C. for 24 hours and Cryptococcus neoformans was cultured at 37° C. for 48 hours in 5% CO2 incubator. After incubation, the growth inhibition of microorganisms in each well was determined by microscopic observation. The results were shown as MEC (minimum effective concentration: μg/ml) value (Table 2).

[2] = system: Candida albicans FP633; assay: as above; type: cell-based; conditions: MEM, 1×10^5 cfu/ml, 37° C. for 24 hours, microscopic observation
Method: as §1, §2, §3

[3] = Solubility (physico-chemical properties)

Row | Compound | MEC (minimum effective concentration) [1] [µg/mL] | MEC (minimum effective concentration) [2] [µg/mL] | melting point | Solubility ([3]; acetone) | Solubility ([3]; chloroform) | Solubility ([3]; ethyl acetate) | Solubility ([3]; methanol) | Solubility ([3]; water)
1 | CCCCCCCCCCCCCCCC(=O)NC1CC(O)C(O)NC(=O)C2C(O)CCN2C(=O)C(C(O)CC(N)=O)NC(=O)C(C(O)C(O)c2ccc(O)c(OS(=O)(=O)[O-])c2)NC(=O)C2CC(O)CN2C(=O)C(C(C)O)NC1=O.[Na+] (stereo not drawn) [Example 1] | 0.08 | 0.04 | 165 to 170 °C (dec.) | slightly soluble | insoluble | slightly soluble | soluble | soluble
2 | CC(O)C1NC(=O)C(N)CC(O)C(O)NC(=O)C2C(O)CCN2C(=O)C(C(O)CC(N)=O)NC(=O)C(C(O)C(O)c2ccc(O)c(OS(=O)(=O)O)c2)NC(=O)C2CC(O)CN2C1=O (stereo not drawn) [Example 2] | – | – | 150 to 155 °C | – | – | – | – | –
